The record followed here is ChEMBL document CHEMBL1148858, “Discovery of novel benzimidazolones as potent non-nucleoside reverse transcriptase inhibitors active against wild-type and mutant HIV-1 strains” (Bioorg Med Chem Lett, 2007).

Data set [1] deals with Human immunodeficiency virus type 1 reverse transcriptase (Human immunodeficiency virus 1, UniProt Q72547). As to the kind of experiment: Inhibition of RNA dependent DNA polymerase activity of HIV1 recombinant reverse transcriptase.
The subject of data set [2] is Human immunodeficiency virus 1. As to the kind of experiment: Antiviral activity against HIV1 assessed as reduction of virus-induced cytopathic effect in MT4 cells. Format: functional, organism-based. The settings on record: Human immunodeficiency virus 1, MT4. On the technique in general: Protection from cytopathic effect is a common read-out in antiviral testing.

Data set [3] in a line: Cytotoxicity against MT4 cells assessed as reduction of cell viability. Format: cell-based. Particulars: human.
The nature of data set [4]: Selectivity index, ratio of CC50 for human MT4 cells to EC50 for HIV1. Format: functional.
Data set [5] has as its system Human immunodeficiency virus 1. As to the kind of experiment: Antiviral activity against HIV1 3B in CEM cells assessed as inhibition of virus-induced giant cell formation. Format: functional, organism-based. The settings on record: Human immunodeficiency virus 1, 3B, CCRF-CEM.
In data set [6] the test system is Human immunodeficiency virus 1. As to the kind of experiment: Antiviral activity against HIV1 with reverse transcriptase L100I mutation in CEM cells assessed as inhibition of virus-induced giant cell formation. Format: functional, organism-based. Particulars: Human immunodeficiency virus 1, CCRF-CEM.
Data set [7] concerns Human immunodeficiency virus 1. The experiment in a line: Antiviral activity against HIV1 with reverse transcriptase K103N mutation in CEM cells assessed as inhibition of virus-induced giant cell formation. Format: functional, organism-based. Particulars: Human immunodeficiency virus 1, CCRF-CEM.
Data set [8] relates to Human immunodeficiency virus 1. As to the kind of experiment: Antiviral activity against HIV1 with reverse transcriptase E138K mutation in CEM cells assessed as inhibition of virus-induced giant cell formation. It is filed as functional, organism-based. The settings on record: Human immunodeficiency virus 1, CCRF-CEM.
For data set [9], the system named is Human immunodeficiency virus 1. As to the kind of experiment: Antiviral activity against HIV1 with reverse transcriptase Y181C mutation in CEM cells assessed as inhibition of virus-induced giant cell formation. It is filed as functional, organism-based. The settings on record: Human immunodeficiency virus 1, CCRF-CEM.
In data set [10] the test system is Human immunodeficiency virus 1. The experiment in a line: Antiviral activity against HIV1 with reverse transcriptase Y188H mutation in CEM cells assessed as inhibition of virus-induced giant cell formation. Format: functional, organism-based. Particulars: Human immunodeficiency virus 1, CCRF-CEM.

On to `Cc1cc(C)cc(Cn2c(=O)[nH]c3ccc(Cl)cc32)c1`, for which the IC50 (as a rule, the concentration that gives 50% inhibition) in data set [1] turned out to be 150 nM. The concentration for a half-maximal effect (EC50) (commonly the concentration needed to bring the measured effect to its halfway point) is 32 nM in data set [2]; 81 nM in [5]; 49 nM in [6]; at least 3000 nM in [7]; 665 nM in data set [8]; over 3000 nM in data set [9]. Also, the concentration giving a half-maximal response (EC50) in data set [10] is over 3000 nM. The CC50 (commonly the concentration that lowers cell viability or growth by half) in data set [3] turned out to be 8900 nM. In addition, the “Ratio CC50/EC50” value in [4] is on record as 281.
In the case of `Cc1cc(C)cc(S(=O)(=O)n2c(=O)[nH]c3ccc(Cl)cc32)c1`, the IC50 in [1] worked out at 5 nM. Moreover, the EC50 is 2 nM in [2]; 3 nM in data set [5]; 6 nM in data set [6]; 29 nM in data set [7]; 15 nM in [8]; 160 nM in [9]. In addition, the 50% effective concentration (EC50) in [10] was found to be 1500 nM. Besides, in data set [3], the 50% cytotoxic concentration (CC50) amounted to 39000 nM. Further, in data set [4], the “Ratio CC50/EC50” value worked out at 17846.
On to `O=c1[nH]c2ccc(Cl)cc2n1Cc1c(F)cccc1F`, for which, in data set [1], the half-maximal inhibitory concentration (IC50) worked out at 700 nM. Also, the EC50 in [2] is 240 nM; in [5], 374 nM; in data set [6] it was 3100 nM; in data set [7], over 50000 nM; in data set [8], 2500 nM; in data set [9], over 50000 nM. Besides, in [10], the half-maximal effective concentration (EC50) was over 50000 nM. Besides, the 50% cytotoxic concentration (CC50) in data set [3] is over 424000 nM. The “Ratio CC50/EC50” value in [4] was over 1766.
With `O=C1Nc2ccc(Cl)cc2[C@@](C#CC2CC2)(C(F)(F)F)O1` [EFAVIRENZ], the CC50 in [3] is over 6000 nM. The concentration for a half-maximal effect (EC50) in data set [7] is 218 nM; in [8] it was 9.6 nM; in data set [9], 6.1 nM; in data set [10], 49 nM.
Consider `Cc1ccnc2c1NC(=O)c1cccnc1N2C1CC1` [NEVIRAPINE], for which the EC50 was 73 nM in [2]; 30 nM in [5]; 199 nM in [6]; 1300 nM in [7]; 207 nM in data set [8]; 2500 nM in data set [9]. Besides, the EC50 in data set [10] is over 75000 nM. Further, the CC50 in [3] was over 15000 nM.
